Test results as given in US8563731B2, “Mesylate salt of 5-(2-{[6-(2,2-difluoro-2-phenylethoxy)hexyl]jamino}-1-hydroxyethyl)-8-hydroxyquinolin-2(1H)-one as agonist of the β2 adrenergic receptor” (Almirall, S.A., priority 2008, dated 2013).
Counter-ions that a name gives are not always drawn.

Assay: Stability Test under accelerated condition (solid in amber glass vials, impurities by HPLC)
Format: physicochemical
Experimental: Stability of the mesylate salt of the present invention was evaluated under accelerated condition. About 5 mg of the mesylate salt of the present invention were introduced in individual 10 ml amber glass vials. These vials were stored at 40° C. during 30 days and at 80° C. during 15 and 30 days, respectively. After the forced stress conditions, samples were dissolved in 5 ml of the appropriate solvent. Impurities increase was determined using HPLC analysis and by calculating the relative areas.

HPLC Impurities (% area) (Stability @ 40° C. 30 days): 2.4% | HPLC Impurities (% area) (Stability @ 80° C. 15 days): 3.10% | HPLC Impurities (% area) (Stability @ 80° C. 30 days): 3.8% | percentage of impurities observed (all forced conditions (40° C. 30 days, 80° C. 15 and 30 days)): less than 5%
Compound: O=c1ccc2c([C@@H](O)CNCCCCCCOCC(F)(F)c3ccccc3)ccc(O)c2[nH]1 [5-(2-{[6-(2,2-difluoro-2-phenylethoxy)hexyl]amino}-1(R)-hydroxy-ethyl)-8-hydroxyquinolin-2(1H)-one mesylate]
